One test has as its system ATCC 29213, MSSA, bla +. The test can be described thus: MIC determination and potentiation assay (microdilution broth). The test is classed as cell-based, Staphylococcus aureus. As to conditions: for MIC: Staphylococcus aureus. On the procedure:
(§1) MICs were determined by the microdilution broth method following the Clinical & Laboratory Standards Institute (CLSI) guidelines. […] Experiments were performed in triplicate in 96-well plates with 5×10^5 CFU·mL^−1 of bacteria. […] The MIC was the concentration for which bacterial growth was not observed.
(In broth dilution the organism is exposed to a series of concentrations in liquid medium.)

In test [1] the test system is COL (NRS100), MRSA, SCCmec I, bla −. The description is as above. It is filed as cell-based, Staphylococcus aureus. The following applies: for MIC: Staphylococcus aureus. On the procedure: as §1
Test [2] relates to HIP 133170 (VRS3a), MRSA/VRSA, SCCmec IV, bla +. Described as above. It is filed as cell-based, Staphylococcus aureus. As to conditions: for MIC: Staphylococcus aureus. The method, then:
as §1

Test [3] has as its system HIP07920 (NRS21), MRSA/VISA, SCCmec IV, bla +. Described as above. It is filed as cell-based, Staphylococcus aureus. The following applies: for MIC: Staphylococcus aureus, agent alone. The method, then: as §1
For test [4], the system named is HIP15178 (VRS5), MRSA/VRSA, SCCmec II, bla +. Described as above. The test is classed as cell-based, Staphylococcus aureus. As to conditions: for MIC: Staphylococcus aureus. On the procedure:
as §1

The subject of test [5] is JE2, MRSA, SCCmec IV, bla −. The test is described as above. The test is classed as cell-based, Staphylococcus aureus. As to conditions: for MIC: Staphylococcus aureus, MRSA, agent alone. On the procedure: as §1
Test [6] concerns LIM2 (NRS36), MRSA, SCCmec I, bla +. Described as above. As to conditions: for MIC: Staphylococcus aureus. The test is classed as cell-based, Staphylococcus aureus. The method, then: as §1
Test [7] deals with NTCT 8325 (NRS77), MSSA, bla −. The test is described as above. The test is classed as cell-based, Staphylococcus aureus. The following applies: for MIC: Staphylococcus aureus. The method, then: as §1
In test [8] the test system is 626 (NRS382), MRSA, SCCmec II, bla +. Described as above. It is filed as cell-based. The following applies: Staphylococcus aureus. The method, then:
as §1

The test system of test [9] is CM05, MRSA, SCCmec I, bla +. Described as above. It is filed as cell-based. The following applies: Staphylococcus aureus. On the procedure: as §1
For test [10], the system named is HIP13036 (NRS404), MRSA/VISA, SCCmec II, bla +. The description is as above. As to conditions: Staphylococcus aureus. It is filed as cell-based. On the procedure: as §1
The subject of test [11] is SR4035, MRSA, SCCmec IV, bla +. Described as above. The test is classed as cell-based. As to conditions: Staphylococcus aureus. The method, then:
as §1

Test [12] relates to USA300-0114 (NRS384), MRSA, SCCmec IV, bla +. The test is described as above. The test is classed as cell-based. As to conditions: Staphylococcus aureus. On the procedure:
as §1

The test system of another test is NRS21. The test can be described thus: Time-kill assay. It is filed as cell-based, Staphylococcus aureus. As to conditions: for antibacterial activity as single-drug treatment: FIG. 3, 24 h, OXA 32 mg·L^−1, 4 8 mg·L^−1. On the procedure: (§2) Time-kill assay. MRSA strains (NRS21, NRS70, NRS382, NRS404, HFH 29568, and HFH 30495) were grown overnight on tryptic soy agar plate. Bacteria were diluted in Muller-Hinton broth containing 2% NaCl to […] CFU·mL^−1. […] For MEM and CPT, cation-adjusted Muller-Hinton broth without 2% NaCl was used. Aliquots were taken at 0, 3, 6, 9, 12, and 24 h and were diluted serially for bacterial counts. The assay was done in triplicate.

In another test the test system is FPR3757 (USA300 clone). As to the kind of experiment: Time-kill assay. It is filed as cell-based, Staphylococcus aureus. As to conditions: for antibacterial activity as single-drug treatment: FIG. 3, 24 h, MEM 2 mg·L^−1, 4 8 mg·L^−1.
Test [13] concerns various MRSA strains (NRS21, NRS70, NRS382, NRS404, HFH29568, HFH30495). As to the kind of experiment: Time-kill assays (FIG. 6). The test is classed as cell-based, Staphylococcus aureus. As to conditions: at 24 h. On the procedure: as §2
[14] abbreviates: MSSA strain ATCC29213, 4 at 8 mg·L^−1.
Setting [15] is: ATCC 29213, agent alone, read-out: MIC.
Setting [16] is: COL (NRS100), agent alone, read-out: MIC.
Where [17] appears, read: HIP 133170 (VRS3a), agent alone, read-out: MIC.
Setting [18] is: HIP15178 (VRS5), agent alone, read-out: MIC.
Where [19] appears, read: LIM2 (NRS36), agent alone, read-out: MIC.
Setting [20] is: NTCT 8325 (NRS77), agent alone, read-out: MIC.
Where [21] appears, read: strain NTCT8325, 4 at 8 mg·L^−1.
[22] abbreviates: 626 (NRS382), agent alone, read-out: MIC.
Where [23] appears, read: HIP13036 (NRS404), agent alone, read-out: MIC.
Setting [24] is: SR4035, agent alone, read-out: MIC.
Where [25] appears, read: USA300-0114 (NRS384), agent alone, read-out: MIC.

Like-named read-outs stand apart in the source and are kept apart here. Some results are limits rather than exact numbers.

For `N#Cc1ccc2nc(SCB(O)O)n(Cc3ccc(C(F)(F)F)cc3C(F)(F)F)c2c1` [Compound 4, (((1-(2,4-bis(trifluoro-methyl)benzyl)-6-cyano-1H-benzo[d]imidazol-2-yl)thio)methyl)boronic acid], the “fold lowering of MEM MIC by 4” value is 2 fold in the test on ATCC 29213, MSSA, bla + (setting [14]); 16 fold in [1] (COL, 4 at 8 mg·L^−1); 256 fold in test [2] (vancomycin-resistant MRSA, Table 1 entry 19 (VRS3a)); 64 fold in test [4] (vancomycin-resistant MRSA, Table 1 entry 13 (VRS5)); 64 fold in test [5] (4 at 8 mg·L^−1); 512 fold in test [6] (strain NRS36, 4 at 8 mg·L^−1). The “fold lowering of MEM MIC by 4” value in test [7] (setting [21]) is given as 2 fold. The “fold lowering of OXA MIC by 4” value in the test with ATCC 29213, MSSA, bla + (setting [14]) is reported as 4 fold; in test [6] (strain NRS36, 4 at 8 mg·L^−1), 64 fold. Moreover, the MIC with ATCC 29213, MSSA, bla + (setting [15]) came to 16 µg/mL; in [1] (setting [16]), 32 µg/mL; in test [2] (setting [17]), 16 µg/mL; in test [3] (HIP07920 (NRS21)), 8 µg/mL; in test [4] (setting [18]) it was 32 µg/mL; in test [5], 16 µg/mL. Besides, the minimum inhibitory concentration (MIC) in test [6] (setting [19]) came to 16 µg/mL; in test [7] (setting [20]), 16 µg/mL; in [8] (setting [22]) it was 16 µg/mL; in test [9], 32 µg/mL; in test [10] (setting [23]), 8 µg/mL; in [11] (setting [24]), 16 µg/mL. Moreover, the minimum inhibitory concentration (MIC) in test [12] (setting [25]) is 16 µg/mL. Also, the “fold reduction of OXA MIC by 4” value in [1] (COL, 4 at 8 mg·L^−1) is 2 fold; in test [3] (strain NRS21, 4 at 4 mg·L^−1), 4096 fold; in test [5] (4 at 8 mg·L^−1) it was 2 fold. Further, the “fold lowering of FOX MIC by 4” value in test [3] (strain NRS21, 4 at 4 mg·L^−1) came to 2048 fold. The “effect of 4 on the OXA MIC” value in test [7] (setting [21]) was “no effect”. Further, the “antibacterial activity as single-drug treatment” value (shortened to “antibacterial activity”) with NRS21 and in the test on FPR3757 (USA300 clone) was “did not show antibacterial activity” throughout. Moreover, the “log increase in bacterial growth at 24 h” value in the test on NRS21 (compound 4 at 8 mg·L^−1) stood at 4.1 log. Also, in test [13], the “reduction in bacterial growth by itself” value is reported as “Neither OXA, MEM, CPT, or compound 4 by itself showed reduction in bacterial growth”.
`CCO/N=C(\C(=O)N[C@@H]1C(=O)N2C(C(=O)[O-])=C(Sc3nc(-c4cc[n+](C)cc4)cs3)CS[C@H]12)c1nsc(N)n1` [CPT, ceftaroline]: the MIC in the test on ATCC 29213, MSSA, bla + (setting [15]) was 0.06 µg/mL; in test [1] (setting [16]), 1 µg/mL; in test [2] (setting [17]), 1 µg/mL; in test [3] (HIP07920 (NRS21)) it was 0.5 µg/mL; in test [4] (setting [18]), 1 µg/mL; in [5] it was 1 µg/mL. In addition, the MIC in [6] (setting [19]) worked out at 1 µg/mL; in test [7] (setting [20]), 0.25 µg/mL; in [8] (setting [22]), 1 µg/mL; in test [9] it was 2 µg/mL; in test [10] (setting [23]), 1 µg/mL; in test [11] (setting [24]), 1 µg/mL. Also, the MIC in [12] (setting [25]) amounted to 0.5 µg/mL. The “reduction in bacterial growth by itself” value in test [13] was “Neither OXA, MEM, CPT, or compound 4 by itself showed reduction in bacterial growth”.
As for `C[C@@H](O)[C@H]1C(=O)N2C(C(=O)O)=C(S[C@@H]3CN[C@H](C(=O)N(C)C)C3)[C@H](C)[C@H]12` [MEM, meropenem], the minimal inhibitory concentration (MIC) came out at 0.13 µg/mL with ATCC 29213, MSSA, bla + (setting [15]); 16 µg/mL in test [1] (setting [16]); 16 µg/mL in test [2] (setting [17]); 8 µg/mL in test [3] (HIP07920 (NRS21)); 8 µg/mL in test [4] (setting [18]); 4 µg/mL in test [5]. The MIC in [6] (setting [19]) was 8 µg/mL; in test [7] (setting [20]) it was 0.13 µg/mL; in test [8] (setting [22]), 32 µg/mL; in [9] it was greater than 32 µg/mL; in test [10] (setting [23]), 8 µg/mL; in [11] (setting [24]), 16 µg/mL. Besides, the minimal inhibitory concentration (MIC) in test [12] (setting [25]) is 4 µg/mL. Moreover, the “antibacterial activity” value in the test with FPR3757 (USA300 clone) is on record as “did not show antibacterial activity”. Also, the “activity of MEM by itself” value in the test with FPR3757 (USA300 clone) (throughout the 24-h assay) is on record as “no activity”. Moreover, in test [13], the “reduction in bacterial growth by itself” value is given as “Neither OXA, MEM, CPT, or compound 4 by itself showed reduction in bacterial growth”.
With `Cc1onc(-c2ccccc2)c1C(=O)N[C@@H]1C(=O)N2[C@@H]1SC(C)(C)[C@@H]2C(=O)O` [OXA, oxacillin], the MIC in the test with ATCC 29213, MSSA, bla + turned out to be 2 µg/mL; in test [1], 512 µg/mL; in [2], 256 µg/mL; in test [4] it was 256 µg/mL; in test [6], 64 µg/mL; in test [7], 0.25 µg/mL. Moreover, the minimal inhibitory concentration (MIC) in test [8] came out at 512 µg/mL; in test [9] it was 512 µg/mL; in [10], 256 µg/mL; in test [11], 128 µg/mL; in test [12] it was 128 µg/mL. Moreover, the “MIC of the β-lactam with 4” value in test [3] (HIP07920 (NRS21), Concentration of 4: 4 mg · L^−1) stood at 0.03 µg/mL. Also, the “antibacterial activity” value in the test on NRS21 is on record as “did not show antibacterial activity”. Moreover, in the test on NRS21 (OXA at 32 mg·L^−1 by itself), the “log increase compared to initial bacterial count at 0 h” value worked out at 1.9 log. Besides, in test [13], the “reduction in bacterial growth by itself” value is given as “Neither OXA, MEM, CPT, or compound 4 by itself showed reduction in bacterial growth”.
Take `CO[C@@]1(NC(=O)Cc2cccs2)C(=O)N2C(C(=O)O)=C(COC(N)=O)CS[C@@H]21` [FOX, cefoxitin]: the MIC was 4 µg/mL in the test on ATCC 29213, MSSA, bla + (setting [15]); 256 µg/mL in test [1] (setting [16]); 128 µg/mL in test [2]; 64 µg/mL in [3] (HIP07920 (NRS21)); 128 µg/mL in test [4]; 64 µg/mL in test [5]. Moreover, the MIC in [6] came to 128 µg/mL; in [7] (setting [20]), 4 µg/mL; in test [8] it was 512 µg/mL; in test [9] it was 512 µg/mL; in [10] (setting [23]) it was 256 µg/mL; in test [11], 128 µg/mL. In addition, in test [12] (setting [25]), the MIC came to 64 µg/mL.

For orientation: MIC means the least concentration at which growth counts as inhibited.
